Experimental data as given in patent US20040231558A1, “Water-color ink” (priority 2001, published 2004).

Legend:
[1] = Evaluation of moisture resistance (image-recorded paper at 40° C. and humidity 85%, visual observation); format: physicochemical; details: for (B) moisture resistance: image-recorded paper at 40° C. and humidity 85%, visually observed
[2] = Evaluation of light fastness-2 (OD value of printed portion after 400 hours xenon fadeometer); format: physicochemical; details: for (A)-2 light fastness-2: ink prepared as in Example 1 from the salt named in the row, OD value of printed portion after 400 hours xenon fadeometer
Method: (§1) The prepared ink was filled in an ink cartridge for a piezo-type ink-jet printer EM-930C (manufactured by Seiko Epson). The printing was performed with this printer, and the light fastness was evaluated. Further, the storage stability of the ink was evaluated.
(A)-2 Evaluation of Light Fastness-2
Printing density (OD value) was measured after irradiating a printed-portion with light for 400 hours using axenon fadeometer (manufactured by Suga Shikenki), and the light fastness was evaluated.

[3] = Evaluation of storage stability of ink (40° C. for 3 months, insoluble matter and clogging); format: physicochemical; details: recording liquid stored at 40° C. for 3 months; for (C) storage stability: insoluble matter and clogging
Method: as §1
(C) Evaluation of Storage Stability of Ink:
After a recording liquid was stored at 40° C. for 3 months, it was observedwhether or not an insoluble matterwas precipitated, and whether or not clogging occurred after continuous recording with the foregoing printer for a long period of time.

[4] = Solubility in water of the salt
[5] = Evaluation of light fastness-1 (OD value of printed portion after 100 hours xenon fadeometer); format: physicochemical; details: ink prepared as in Example 1 from the salt named in the row; OD value of printed portion after 100 hours xenon fadeometer
Method: as §1
(A)-1 Evaluation of Light Fastness-1
Printing density (OD value) was measured after irradiating a printed portion with light for 100 hours using a xenon fadeometer (manufactured by Suga Shikenki) to evaluate the light fastness.

SMILES	(B) moisture resistance [1]	(A)-2 light fastness-2 [2]	(C) storage stability [3]	Solubility in water ([4]; % by weight)	(A)-1 light fastness-1 [5]	Solubility in water ([4]; salt type M1 to M4)	(A)-2 light fastness-2 ([2]; NH(CH2CH=CH2)3 salt form)	(A)-2 light fastness-2 ([2]; Na salt form)	Evaluation of moisture resistance ([1]; image-recorded paper at 40° C., humidity 85%, visual observation)	Evaluation of light fastness-2 ([2]; ink with 3% dye printed with ink-jet printer EM-930C, 400 hours xenon fadeometer, OD value vs before irradiation)	Evaluation of ink storage stability ([3]; precipitation and clogging)
C[N+](C)(C)C.C[N+](C)(C)C.Cc1c(N=Nc2cc(C(=O)[O-])ccc2C(=O)[O-])c(O)[nH]c(=O)c1C#N	ο	♯	ο	≥ 3%							
C[N+](C)(C)C.C[N+](C)(C)C.C[N+](C)(C)C.C[N+](C)(C)C.Cc1c(N=Nc2cc(C(=O)[O-])ccc2C(=O)[O-])c(O)n(CCNc2nc(Cl)nc(NCCn3c(O)c(N=Nc4cc(C(=O)[O-])ccc4C(=O)[O-])c(C)c(C#N)c3=O)n2)c(=O)c1C#N	⊚	∘	∘	≥ 5%	⊚						
Cc1c(N=Nc2cccc(C(=O)O)c2C(=O)O)c(O)[nH]c(=O)c1C#N [Compound No. 1]	◯	⊚	◯		⊚	>3%					
Cc1c(N=Nc2cc(C(=O)O)ccc2C(=O)O)c(O)[nH]c(=O)c1C#N [Compound No. 11]	◯	⊚	◯		⊚	>3%					
Cc1c(C(=O)O)ccc(C(=O)O)c1N=Nc1c(O)[nH]c(=O)c(C#N)c1C [Compound No. 24]	◯	◯	◯		⊚	>5%					
Cc1c(N=Nc2cc(Cl)cc(C(=O)O)c2C(=O)O)c(O)[nH]c(=O)c1C#N [compound 3]	◯	⊚	◯		⊚	>3%					
Cc1c(N=Nc2cc(C(=O)O)ccc2C(=O)O)c(O)n(CCO)c(=O)c1C#N [compound 37]	◯	⊚ and Δ	◯ and Δ		⊚						
Cc1c(N=Nc2cccc(C(=O)O)c2C(=O)O)c(O)n(C(C(=O)O)C(=O)O)c(=O)c1C#N [compound 52]	Δ and ◯	⊚ and Δ	◯ and Δ		⊚						
Cc1c(N=Nc2cc(C(=O)O)ccc2C(=O)O)c(O)n(CCC(=O)O)c(=O)c1C#N [compound 78]	◯		◯		⊚		◯	⊚			
Cc1c(N=Nc2cc(C(=O)O)ccc2C(=O)O)c(O)n(Cc2ccc(C(=O)O)c(C(=O)O)c2)c(=O)c1C#N [compound 92]	⊚	⊚⊚	◯		⊚						
Cc1c(N=Nc2c(C(=O)O)cccc2C(=O)O)c(O)n(CCC(=O)O)c(=O)c1C#N [compound 95]	Δ and ◯	⊚ and Δ	◯ and Δ		⊚						
Cc1c(N=Nc2cc(C(=O)O)ccc2C(=O)O)c(O)n(CCS(=O)(=O)O)c(=O)c1C#N [compound 136]	Δ and ◯	⊚ and Δ and ◯	◯ and Δ		⊚						
Cc1c(N=Nc2cc(S(=O)(=O)O)ccc2C(=O)O)c(O)n(CCC(=O)O)c(=O)c1C#N [compound 218]		⊚	◯		⊚	>5%					
Cc1c(N=Nc2cc(C(=O)[O-])ccc2C(=O)[O-])c(O)[nH]c(=O)c1C#N.[K+].[K+] [potassium salt of compound No. 11]				≥ 3%					ο	♯	ο
